In patent US20230110065A1, “COMBINATION OF ANETHOLE TRITHIONE OR ITS DERIVATIVE, 4-OH-ANETHOLE TRITHIONE, WITH DOXYCYCLINE OR MINOCYCLINE FOR THE USE THEREOF IN THE TREATMENT OF PARKINSON'S DISEASE” (priority 2020, published 2023):
“Also recorded” adds a separate entry of the source.

Assays:
[1] = test system: Parkinson's disease; assay: Clinical case: person with Parkinson's disease; type: in vivo, human
Method: This therapeutic solution was tested on a person with Parkinson’s disease. A history of events over 3 years (current follow-up) is presented below:
Symptoms: At the very beginning of 2018, the first manifestations of Parkinson’s appeared: tremors in the left hand, slowing of walking pace, chaotic descent of stairs, tilting of the torso forward accompanied by back pain in the form of muscle contractures, as well as the beginnings of various obvious non-motor disorders (withdrawal, indifference, difficult decision-making, loss of joy in life, depression, etc.), constipation, hyposmia. Initially, ATT was tested as monotherapy.
Treatment: The problem then arose of deciding which dose to use. The patient was already taking ATT to treat a problem of benign prostatic hypertrophy (cf. patent WO2019/O73173) and used it with the greatest satisfaction at a dose of 3 cp to 25 mg, given in the morning and evening, but the dose turned out to be insufficient for treating Parkinson’s disease. A blood-brain barrier crossing problem was suspected and the decision was taken to increase this dose by 4 times by dividing it into 4 daily doses, i.e., 4 x 6 tablets/day (equivalent to 600 mg/day), so as to reduce concentration fluctuations as much as possible (the plasma half-life of ATT in humans is approximately 3 hrs).
Symptoms: In April-May 2019, unusual fatigue manifested when the patient performed strenuous tasks.
Treatment: Faced with worsening fatigue, the decision was taken, on Dec. 19, 2019, to add doxycycline at a dose of 50 mg every 6 hrs, which dose was intended to ensure stable concentrations in the LCR of approximately 0.9 µM/L (Dotevall, 1989; Karlsson, 1996), i.e., around 3 times what Gonzalez-Lizzaraga (2017) recommends.

[2] = test system: dopaminergic neurons in midbrain cultures; assay: Survival of dopaminergic (TH+) neurons in midbrain cultures under low-noise, spontaneous oxidative stress; type: cell-based, mouse; conditions: 7 days, FIG. 8
Method: Midbrain cultures and immunodetection of tyrosine hydroxylase (TH): Mouse midbrain cultures were produced based on a protocol initially described by Troadec and colleagues (2001) and subsequently taken up by Rousseau and colleagues (2013). The cultures were generated from Swiss mouse embryos (Janvier LABS, Le Genest-St Isles) taken from the pregnant mother on day 13.5 of gestation. The cells dissociated from the midbrain were cultured in 48-well plates containing 500 µl of DMEM/HamF12 medium, supplemented with 10% fetal bovine serum (Biowest LLC, Les Ulis, France). Approximately 80-100 10^3 cells were added initially to each culture well. After one hour, the initial medium was replaced with the DMEM/HamF12 medium supplemented with 20 µg/mL of insulin. The culture medium (350 µl) and the treatments were renewed on days 1 and 3 in vitro. The cultures were maintained for a total of 7 days before binding and analysis. […] TH^+ neurons were counted according to a protocol described previously (Rousseau et al, 2013). The counts are expressed as % of the values obtained in the control cultures treated with apotransferrin.
Statistical analysis: The experimental data correspond to mean ± SEM values. […] The data were analyzed with the GraphPad Prism 8.3.1 software or Sigmaplot 12.5 software using One-Way ANOVA, followed by a post-hoc Student Newman Keuls test.

[3] = in humans; cited from earlier work
[4] = cited from earlier work
[5] = test system: microglia in culture activated by LPS (TLR4 agonist); assay: TNF-a release (ELISA) in microglia in culture activated by LPS; type: cell-based, mouse
Description: Purification of microglia: The cultures were produced from a cell suspension obtained by mechanical dissociation of the brains of newborn mice, C57BL/6J (Janvier LABS), according to a protocol described by Sepulveda-Diaz and colleagues (Glia, 2016) and modified subsequently by dos-Santos-Pereira and colleagues (Glia, 2020). The protocol used follows the directives of the Council of the European Union (2010/63/EU). It was approved by the Ethics Committee for Animal Experimentation, Charles Darwin no. 5. Corning culture flasks of 75 cm^2 precoated with a polycation, polyethyleneimine (PEI; 1 mg/mL) diluted in a borate buffer pH 8.3, were used so as to obtain spontaneous isolation of the microglial cells after 15-20 days of culture, this isolation taking place at the expense of other cell populations, in particular, astrocytes. In order to maintain the flask cultures, Dulbecco’s modified Eagle’s medium (DMEM) supplemented with 10% fetal bovine serum (FBS, Biowest LLC) and 1% penicillin/streptomycin cocktail was used (see experimental details described in the publication of Sepulveda-Diaz and colleagues). After the microglia purification step, the microglia adhering in the culture flasks were trypsinized to produce subcultures in 48-well multi-well Nunc plates. These cultures were maintained in the presence of DMEM, supplemented with 20 mM HEPES and 1% FBS. […]
(§1) Assessment of TNF-a levels: The culture medium of the microglia, recovered 24 hrs after the stimulation by the inflammogens was initiated, was then frozen at -20° C. until the analysis. TNF-a was detected with an ELISA kit from ThermoFisher (BMS607-3TWO), following the supplier’s instructions (dos-Santos-Pereira et al, Glia, 2020). The absorbance of each sample was measured at 450 nm with a SpectraMax i3X.
(§2) Statistical analysis: The experimental data were analyzed with the GraphPad Prism 8.3.1 software by applying a One-Way ANOVA test, followed by a post-hoc Student Newman Keuls test.

[6] = test system: microglia in culture activated by PAM3CSK4 (TLR2 agonist); assay: TNF-a release (ELISA) in microglia in culture activated by PAM3CSK4; type: cell-based, mouse; conditions: PAM3CSK4 1 µg/mL, 24 hrs; FIG. 4
Description: Purification of microglia: The cultures were produced from a cell suspension obtained by mechanical dissociation of the brains of newborn mice, C57BL/6J (Janvier LABS), according to a protocol described by Sepulveda-Diaz and colleagues (Glia, 2016) and modified subsequently by dos-Santos-Pereira and colleagues (Glia, 2020). The protocol used follows the directives of the Council of the European Union (2010/63/EU). It was approved by the Ethics Committee for Animal Experimentation, Charles Darwin no. 5. […]
as §1, §2

[7] = biological target: T1, a-synuclein (Homo sapiens, UniProt P37840); assay: Amyloid aggregation of a-synuclein by orbital shaking, Thioflavin-T test; type: biochemical; conditions: ATX 1, 10 or 100 µM, 600 rpm, 37° C., 96 h; FIG. 5B
T1 construct: made in house; host or cells: Escherichia coli (plasmid pT7-7)
Method: Preparation of a-synuclein: Human recombinant a-synuclein was produced from a strain of Escherichia coli carrying a plasmid pT7-7 containing the coding sequence of the protein (Kaylor et al, J Mol Biol, 2005; Gonzalez-Lizarraga et al, Sci Rep, 2020). After a purification step, the purity of the protein was evaluated by polyacrylamide gel electrophoresis under denaturing conditions (SDS-PAGE). The stock solution of a-synuclein was prepared in a buffer containing 20 mM of HEPES and 150 mM of NaCl at pH 7.4. Before initiating the aggregation protocol, the protein was centrifuged at 12000 g for 30 minutes in order to eliminate the micro-aggregates. The protein concentration was measured at 280 nm with a Nanodrop 8000 spectrophotometer (Gonzalez-Lizarraga et al, Sci Rep, 2020).
Aggregation of a-synuclein […]: The aggregation protocol was adapted from previous work (Kaylor et al, J Mol Biol, 2005; Gonzalez-Lizarraga et al, Sci Rep, 2020). Briefly, the aggregation of a-synuclein was obtained by orbital shaking (600 rpm; Thermomixer Comfort; Eppendorf), at 37° C. for 96 h, of the recombinant protein (70 µM) solubilized in 20 mM of HEPES and 150 mM of NaCl, pH 7.4. Dimethylformamide (DMF) was used to dilute ATX in this experimental protocol. The formation of aggregated structures was monitored by means of the Thioflavin-T (ThT) test (LeVine et al, Meth Enzymol, 1999).

[8] = biological target: T1, a-synuclein; assay: Transmission electron microscopy of a-synuclein aggregates; type: biochemical; conditions: ATX 10 µM
Method: Transmission electron microscopy: The a-synuclein samples, shaken in the optional presence of the treatments of interest, were characterized by transmission electron microscopy. Aliquots of 50 µl of each solution were used for this analysis. The sample preparation protocol is described in detail by Gonzalez-Lizarraga and colleagues (2020). Images were obtained with a transmission electron microscope, Philips EM 301.

[9] = doxycycline 50 mg every 6 hrs; intended, from Dotevall, 1989; Karlsson, 1996; cited from earlier work

**Q.** Which “Duration of satisfactory treatment” value ([1]; ATT 150 mg, 4 times a day) does the source give for `COc1ccc(-c2cc(=S)ss2)cc1` [ATT, anethole trithione] here?
**A.** Its value is 13 months.

**Q.** What about the “Duration of failure with the onset of new symptoms” value ([1]; ATT 150 mg, 4 times a day, after the satisfactory period) of the same compound?
**A.** The value was 7 months.

**Q.** And the Side effects ([1]; two years of treatment)?
**A.** The Side effects was “no significant side effects have been noted during these two years of treatment, apart from intestinal meteorism”.

**Q.** What about the “Protection as % of that of APO (apotransferrin)” value ([2]; 0.75 µM) of the same compound?
**A.** The value was 0.6%.

**Q.** What about the Plasma half-life [3] of the same compound?
**A.** Its Plasma half-life is “approximately 3 hrs”.

**Q.** And the “Metabolization of ATT” value ([4]; He 2011, Li TM 2007, Li WY 2008)?
**A.** Its value is “metabolizes almost immediately and completely into ATX via O-demethylation”.

**Q.** And the “ATT found in the patient's urine” value ([4]; over a 24-hour period)?
**A.** Its value is “almost no ATT can be found”.

**Q.** What does the source list for `Oc1ccc(-c2cc(=S)ss2)cc1` [ATX, 4-hydroxy-anethole trithione]?
**A.** Release of TNF-a (inflammation marker), result in words ([5]; LPS 10 ng/mL, 24 hrs, FIG. 3): capable of inhibiting the release of TNF-a; Release of TNF-a (inflammation marker), result in words [6]: capable of inhibiting the release of TNF-a; Inhibition of a-synuclein aggregation (ThT fluorescence), result in words [7]: effective, even at a low concentration; also recorded: effectively and concentration-dependently inhibiting the aggregation; Amyloid aggregation of a-synuclein seen by TEM [8]: effectively reduces the amyloid aggregation of a-synuclein

**Q.** What does the source list for `C[C@H]1c2cccc(O)c2C(=O)C2=C(O)[C@]3(O)C(=O)C(C(N)=O)=C(O)[C@@H](N(C)C)[C@@H]3[C@@H](O)[C@@H]21` [DOX, doxycycline]?
**A.** inhibition at 50 µM ([5]; Mus musculus, Microglia, LPS model, 50 µM of DOX, read-out: Inhibition of the release of TNFa): 50%; inhibition at 100 µM ([5]; Mus musculus, Microglia, LPS model, 100 µM of DOX, read-out: Inhibition of the release of TNFa): ~70%; Protective effect as % of that of apotransferrin ([2]; DOX 7.5 µM): 27%; Stable concentrations in the LCR [9]: approximately 0.9 µM/L

**Q.** For `N[C@@H](Cc1ccc(O)c(O)c1)C(=O)O` [L-DOPA], which “Effect of introducing SINEMET (L-DOPA) on symptoms” value ([1]; July 2019, patient on ATT 600 mg/day) is on record?
**A.** Its value is “solved the problem of loss of balance but the hand tremors only slightly improved and fatigue persisted”.
